In US10757937B2, “Sulfonamides that activate ABA receptors” (The Regents of the University of California, priority 2014, dated 2020):
Read-outs that look alike come from different tables or passages of the source.

Tests used:
PYL9 = biological target: T1, PYL9 (Arabidopsis thaliana, UniProt Q84MC7); assay: receptor-mediated PP2C (HAB1) inhibition in vitro assay; type: biochemical; conditions: for remaining activity at 25 µM / PP2C Activity (25 μm) PYL9: compound at 25 μM, control without agonist = 100%
T1 construct: 6X-His; made in house; host or cells: E. coli BL21[DE3]pLysS
T1 sequence (Q84MC7 1-187): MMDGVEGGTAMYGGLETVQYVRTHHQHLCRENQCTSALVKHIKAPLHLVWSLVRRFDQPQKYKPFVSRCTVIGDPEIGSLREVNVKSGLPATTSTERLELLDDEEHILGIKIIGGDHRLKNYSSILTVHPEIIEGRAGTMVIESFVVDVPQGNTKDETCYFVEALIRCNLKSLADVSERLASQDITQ
T1 sequence (Q9CAJ0 23-511 partner): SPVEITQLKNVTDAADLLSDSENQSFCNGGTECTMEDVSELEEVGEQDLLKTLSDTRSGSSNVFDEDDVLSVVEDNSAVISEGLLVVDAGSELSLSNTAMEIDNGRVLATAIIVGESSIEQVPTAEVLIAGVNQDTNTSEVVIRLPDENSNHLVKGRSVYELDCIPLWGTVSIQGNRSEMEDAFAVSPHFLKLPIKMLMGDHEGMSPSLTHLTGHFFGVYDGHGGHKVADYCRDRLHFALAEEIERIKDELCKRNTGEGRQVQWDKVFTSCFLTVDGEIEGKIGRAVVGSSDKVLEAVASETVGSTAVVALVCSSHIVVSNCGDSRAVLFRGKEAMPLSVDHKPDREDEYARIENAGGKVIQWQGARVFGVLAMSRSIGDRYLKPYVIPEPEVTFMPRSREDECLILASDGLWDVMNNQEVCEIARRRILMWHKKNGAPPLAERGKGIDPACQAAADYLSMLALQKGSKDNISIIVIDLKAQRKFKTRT
Method: (§1) A family of 62 structurally related N-acyl sulfonamides (Tables I-V) were tested for ABA agonist activity using multiple receptor-mediated PP2C inhibition in vitro assays (Park et al., 2009). […] The constructs utilized for protein expression have been previously described (Okamoto et al. 2013). For constructs encoding 6X-His-fusion proteins (all receptors except PYL11), the coding sequences were of the receptors were cloned in the vector pET28, expressed in BL21[DE3]pLysS E. coli host cells at 18° C. overnight, and subsequently purified from sonicated lysates using Ni-NTA agarose (Qiagen, USA), according to the manufacturer's instructions. PYL11 was constructed as a maltose binding protein fusion in the vector pMAL-c, expressed in BL21┌DE3┐pLysS host cells and purified using amylose resin (New England Biolabs) as described by the manufacturer. Recombinant GST-HAB1 was expressed and purified as described previously (Park et al., 2009). PP2C activity assays were conducted using the fluorogenic phosphatase substrate 4-methylumbelliferyl-phosphate. Recombinant receptors and HAB1 were used to examine ligand-induced PP2C inactivation in response to multiple test compounds. Enzyme inhibition assays were conducted using the following assay conditions: 50 nM GST-PP2C, 100 mM Tris-OAc (pH 7.9), 100 mM NaCl, 1 mM MnCl2, 1% β-mercaptoethanol. […] Because of this, the ratio of each receptor used in the PP2C-inhibitions assays was established empirically as the minimum fold-excess of receptor required to elicit maximal PP2C inhibition at a saturating ABA concentration (10 μM).
(§2) Based on this criterion, we used a ratio of 2:1 receptor in the assays described herein.
(§3) Using the above assay conditions, compounds were tested at 25 μM for agonist activity on PYL4, PYL5, PYL8 and PYL9. […] Consequently, a subset of the compounds was tested at multiple concentrations against 11 receptors so that IC50 values and receptor selectivity profiles could be examined. […] Thus, the N-acylsulfonamide agonists disclosed are selective for monomeric receptors.
(§4) Additional compounds were tested for biological activity following the procedures of Example 1 with minor modifications.
(§5) For these in vitro receptor assays, the compounds listed were tested in in vitro PP2C inhibition assays with 50 uM of the test compound except for ABA (10 uM). IC50s were calculated from dose curves, but only for selected compounds.

PYL5 = biological target: T2, PYL5 (Arabidopsis thaliana, UniProt Q9FLB1); assay: as above; type: biochemical; conditions: for remaining activity at 25 µM / PP2C Activity (25 μm) PYL5: compound at 25 μM, control without agonist = 100%
T2 construct: 6X-His; made in house; host or cells: E. coli BL21[DE3]pLysS
T2 sequence (Q9FLB1 1-203): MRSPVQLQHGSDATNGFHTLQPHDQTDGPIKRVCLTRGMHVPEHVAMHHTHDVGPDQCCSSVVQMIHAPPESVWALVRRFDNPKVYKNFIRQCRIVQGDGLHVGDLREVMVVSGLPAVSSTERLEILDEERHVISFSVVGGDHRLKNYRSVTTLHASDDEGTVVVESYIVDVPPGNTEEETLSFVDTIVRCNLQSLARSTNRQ
T2 sequence (Q9CAJ0 23-511 partner): T1 sequence (Q9CAJ0 23-511 partner)
Method: as §1, §2, §3, §4, §5

PYL8 = biological target: T3, PYL8 (Arabidopsis thaliana, UniProt Q9FGM1); assay: as above; type: biochemical; conditions: for remaining activity at 25 µM / PP2C Activity (25 μm) PYL8: compound at 25 μM, control without agonist = 100%
T3 construct: 6X-His; made in house; host or cells: E. coli BL21[DE3]pLysS
T3 sequence (Q9FGM1 1-188): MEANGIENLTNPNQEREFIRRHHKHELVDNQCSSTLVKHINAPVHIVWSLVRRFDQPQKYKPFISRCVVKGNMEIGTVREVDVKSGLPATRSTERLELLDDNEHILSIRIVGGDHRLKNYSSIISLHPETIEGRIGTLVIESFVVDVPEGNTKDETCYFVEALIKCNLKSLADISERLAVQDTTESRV
T3 sequence (Q9CAJ0 23-511 partner): T1 sequence (Q9CAJ0 23-511 partner)
Method: as §1, §2, §3, §4, §5

PYL4 = biological target: T4, PYL4 (Arabidopsis thaliana, UniProt O80920); assay: as above; type: biochemical; conditions: compound at 25 μM; control without agonist = 100%
T4 construct: 6X-His; made in house; host or cells: E. coli BL21[DE3]pLysS
T4 sequence (O80920 1-207): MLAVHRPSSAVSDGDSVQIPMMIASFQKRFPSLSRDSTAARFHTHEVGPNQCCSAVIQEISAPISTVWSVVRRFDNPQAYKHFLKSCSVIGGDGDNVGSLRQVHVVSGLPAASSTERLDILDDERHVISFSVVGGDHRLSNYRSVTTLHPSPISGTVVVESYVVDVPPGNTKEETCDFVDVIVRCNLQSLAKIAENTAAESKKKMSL
T4 sequence (Q9CAJ0 23-511 partner): T1 sequence (Q9CAJ0 23-511 partner)
Method: as §1, §2, §3, §4, §5

PYL11 = biological target: T5, PYL11 (Arabidopsis thaliana, UniProt Q9FJ50); assay: as above; type: biochemical; conditions: Table VII; read-out: PP2C Dose Curves PYL11 (IC50)
T5 construct: made in house; host or cells: E. coli BL21[DE3]pLysS
T5 sequence (Q9FJ50 1-161): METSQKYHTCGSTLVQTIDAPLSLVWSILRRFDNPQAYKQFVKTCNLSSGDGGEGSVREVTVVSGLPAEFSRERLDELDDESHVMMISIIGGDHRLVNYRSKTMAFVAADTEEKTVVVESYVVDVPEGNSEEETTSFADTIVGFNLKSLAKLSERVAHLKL
T5 sequence (Q9CAJ0 23-511 partner): T1 sequence (Q9CAJ0 23-511 partner)
Method: as §1, §2, §3, §4, §5

PYL6 = biological target: T6, PYL6 (Arabidopsis thaliana, UniProt Q8S8E3); assay: as above; type: biochemical; conditions: Table VII; read-out: PP2C Dose Curves PYL6 (IC50)
T6 construct: 6X-His; made in house; host or cells: E. coli BL21[DE3]pLysS
T6 sequence (Q8S8E3 1-215): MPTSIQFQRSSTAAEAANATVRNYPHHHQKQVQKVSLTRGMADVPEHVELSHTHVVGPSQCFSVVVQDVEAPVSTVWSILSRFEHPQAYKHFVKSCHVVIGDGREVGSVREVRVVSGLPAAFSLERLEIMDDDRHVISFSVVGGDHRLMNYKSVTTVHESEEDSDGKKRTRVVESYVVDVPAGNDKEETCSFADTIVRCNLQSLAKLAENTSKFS
T6 sequence (Q9CAJ0 23-511 partner): T1 sequence (Q9CAJ0 23-511 partner)
Method: as §1, §2, §3, §4, §5

[1] = tested on: Arabidopsis seed germination and hypocotyl growth; assay: Arabidopsis seed germination and hypocotyl growth; type: in vivo; conditions: − = none; for Hypocotyl Growth Inhibition: Germination Inhibition II, tested at 10 and 50 uM, lowest concentration that inhibited hypocotyl growth in wells where seeds germinated; for minimal effective concentration: Table VIII, tested at 10 or 50 μM, lowest inhibiting concentration, read-out: Hypocotyl Growth Inhibition
Method: We germinated seeds from wild type on ½× strength Murashige and Skoog salts growth medium containing either 10 or 50 μM for all 62 compounds as well as 1 μM (+)-ABA and mock controls. […] To investigate if the any of the compounds are sufficient to control vegetative ABA responses, we treated three week old Arabidopsis plants with aqueous solutions containing 0.02% Silwet and either 50 μM of selected N-acylsulfonamides, 50 μM ABA or 0.1% DMSO (the carrier solvent for the compounds tested). The leaf temperatures were subsequently examined using a thermal imaging camera 24 hours after treatment. It is well known that ABA-induced guard cell closure reduces transpiration, which leads to increases in leaf temperatures. It has been estimated that a 1° C. increase in leaf temperature correlates with a decrease in transpiration rates by approximately 50% (Sirault et al., 2009). Since guard cell aperture is the primary determinant of transpiration rates, thermal imaging is a useful way to indirectly infer relative transpiration rates and, indirectly, relative degrees of guard cell opening at the whole plant level.
as §4
For the germination inhibition experiment, the compounds were tested at 10 and 50 uM. The amounts shown are the lowest of the two concentrations that either inhibited germination or hypocotyl growth in wells where seeds germinated.
For the germination test, the compounds were tested at 1, 5, 10, 25 and 50 uM. The amounts shown are the lowest of the concentrations that either inhibited germination or hypocotyl growth in the wells where seeds germinated.

IC50 (PYL9; Table VII, read-out: PP2C Dose Curves PYL9 (IC50)) [µM]	remaining activity at 25 µM (PYL9) [%]	IC50 (PYL5; Table VII, read-out: PP2C Dose Curves PYL5 (IC50)) [µM]	remaining activity at 25 µM (PYL5) [%]	IC50 (PYL8; Table VII, read-out: PP2C Dose Curves PYL8 (IC50)) [µM]	remaining activity at 25 µM (PYL8) [%]	remaining activity at 25 µM (PYL4) [%]	IC50 (PYL11) [µM]	IC50 (PYL6) [µM]	PP2C Activity (25 μm) PYL9 (PYL9) [%]	PP2C Activity (25 μm) PYL5 (PYL5) [%]	PP2C Activity (25 μm) PYL8 (PYL8) [%]	PP2C Activity (25 μm) PYL4 (PYL4) [%]	Compound	Hypocotyl Growth Inhibition [1] [µM]	minimal effective concentration [1] [µM]	minimal effective concentration ([1]; Arabidopsis thaliana) [µM]
39.6	55	7.06	24	111	73	95	18.5	15.3					N#Cc1ccc(CS(=O)(=O)NC(=O)C2(c3cccc(F)c3)CC2)cc1 [Compound 46]			
									98	95	99	89	CC(C)(C(=O)NS(=O)(=O)Cc1ccc(C#N)cc1)c1ccc2c(c1)OCCO2 [Compound 53]	50	50	
									109	68	106	97	CC(C)(C(=O)NS(=O)(=O)Cc1ccc(C#N)cc1)c1ccc2ccccc2c1 [Compound 54]	50	50	
	68		16		75	91							CC1(C(=O)NS(=O)(=O)Cc2ccc(C#N)cc2)CCCc2ccccc21 (stereo not drawn) [Compound 61]	50		50
